# Earlier results, collected in patent US7560446B2, “Use of angiotensin II receptor antagonists for treating acute myocardial infarction” (Novartis AG, priority 1999, dated 2009).
# Settings: preclinical; administration of the compound in acute MI; no details given
smiles,measurement,value
"CCCCC(=O)N(Cc1ccc(-c2ccccc2-c2nnn[nH]2)cc1)[C@H](C(=O)O)C(C)C [valsartan, (S)—N-(1-carboxy-2-methylprop-1-yl)-N-pentanoyl-N—[2′(1H-tetrazol-5-yl)biphenyl-4-ylmethyl]amine]",size of the MI,reduce the size of the MI
